Experiments:
[1] = test system: neurotensin receptor-1 (NTR1); experiment: NT-induced hypothermia (rectal body temperature) in PNA-treated rats; format: in vivo, rat; details: for body temperature change in response to NT: NT 18 nmol 24 hours later
Method: (§1) NTR1-PNA, MU1R-PNA, and ACSF treated as well as untreated rats were analyzed using the hot plate test for NT. One day after the last treatment, each rat was analyzed as follows. Fifteen minutes prior to testing, a pre-drug latency measurement was made by placing the rat on a hot plate maintained at a temperature of 52±0.15° C. and recording the time elapsed before the rat licked either of its hindpaws. In addition, the temperature of the rat was taken using a thermister probe inserted 3 cm in the rectum to determine the pre-drug body temperature (BT). After making these measurement, an appropriate dose of NT (18 nmol) at a volume of about 0.5 ul was administered into the PAG as described above. Thirty minutes after administering NT, the rat was again placed on a hot plate maintained at a temperature of 52±0.15° C. and the latency between the time the rat was placed on the surface and the time it licked either of its hindpaws was measured. […] Hot plate tests were scored as the percent of maximum possible effect (% MPE) and calculated using the following equation: % MPE=[(post-drug latency−pre-drug latency)/(cut-off−pre-drug latency)]×100; where the cut-off is 30 seconds. […] This average for untreated control rats was used to set the baseline MPE value to 100. Immediately after the 30 second hot plate test, BT was taken to measure NT-induced hypothermia using a thermister probe inserted 3 cm in the rectum. […] All test situations were compared to these baseline values derived from NT responsive untreated controls.
(§2) AS-NTR1-PNA, mismatch-AS-NTR1-PNA, and MU1R-PNA were injected intraperitoneally (10 mg/kg) independently, into separate groups of male Sprague-Dawley rats (Harlan, Prattville, Ala.). The sense-NTR1-PNA oligomer, however, was microinjected directly into the periaqueductal gray (PAG; 5 μg), the major area in the brain involved with perception of pain (nociception). […] Thirty minutes after receiving NT, animals were scored for anti-nociception (hot plate at 52° C.) and hypothermia (rectal probe). Again, anti-nociception scores were calculated as percent of maximum possible effect (% MPE) with the following equation: % MPE=[(post-drug latency time minus pre-drug latency time)/(cut-off time minus pre-drug latency time)]×100; where the cut-off time (i.e., the time when the animal was removed from the device) was 30 seconds for a hot plate test and 12 seconds for a tail flick test. Statistical analysis was done using the rank sum test.

[2] = test system: neurotensin receptor-1 (NTR1); experiment: Hot plate test of NT-mediated anti-nociception in PNA-treated rats; format: in vivo, rat
Method: Under an Institutional Animal Care and Use Committee approved protocol and under sterile conditions male Sprague-Dawley rats (180-200 g) were stereotaxically implanted with stainless steel guide cannulae (26 gauge) into the PAG under sodium pentobarbital anesthesia (50 mg/kg, i.p.) as described in detail elsewhere (Jensen T. S. and Yaksh T. L., Brain Res. 372:301-312 (1986) and Al-Rodhan N.R.F., Brain Res. 557:227-235 (1991)). The coordinates used for PAG cannulations are -5.6 mm posterior from bregma, 1.0 mm lateral from bregma, and 5.5 mm down from the dura. The guide cannula was pre-measured to be 5.5 mm (Plastics One, Roanoke, Va.) and the internal cannula was ordered to fit below the pedestal with a 2.0 mm projection. The guide cannula was then fixed to the skull using a stainless steel screw (⅛ inch) and cranioplastic cement. A stainless steel stilette was then placed in each guide to keep it patent and free of debris. Immediately after surgery, the animals were allowed to recover before returning them to an individual housing cage. All injections began 5-7 days after surgery.
NTR1-PNA oligomers were injected, using a Hamilton digital syringe, into the PAG through the internal cannula, which extended 2 mm below the guide tip. The internal cannula was connected with a length of polyethylene tubing (PE-20) filled with saline solution. A small air bubble was introduced into the tubing to separate the saline from a solution containing 1.3 nmol of NTR1-PNA oligomers in artificial cerebral-spinal fluid (ACSF). The volume of the solution containing the NTR1-PNA oligomers was about 1.0 μl. The bubble was used to confirm the movement of this solution through the polyethylene tubing.
NTR1-PNA oligomers were injected into the PAG of each rat three times, on days -4, -2, and 0. Controls included rats receiving no injections, rats receiving injections of ACSF only, and rats receiving PNA oligomers having sequence specificity for an unrelated polypeptide, the mu-1 morphine receptor (MU1R). The sequence of MU1R-PNA is 5′-[…]-3′ (SEQ ID NO: 2).
The injection of NT in the PAG of rats produces a potent anti-nociceptive response as well as hypothermia. These responses are mediated by specific NT receptors and are not inhibited by naloxone. A very sensitive and reliable hot plate test was used to measure the anti-nociceptive effects of NT (Al-Rodhan N.R.F., Brain Res. 557:227-235 (1991)).
as §1, with “controls. […]” for “controls.”

MU1R mRNA = experiment: Quantitative RT-PCR of MU1R mRNA relative to GAPDH; format: in vivo; details: treated intracranially, 5 μg
Method: (§3) Messenger RNA (mRNA) levels for NTR1, MU1R, and GAPDH were measured in control and PNA-treated animals. Briefly, total RNA was isolated from approximately 20 mg of tissue using the S.N.A.P. total RNA Isolation Kit (Invitrogen, Carlsbad, Calif.). Quantitative RT-PCR was performed on treated and control animals using GAPDH as an internal standard and PCR fragments of the human NTR and of a GAPDH deletion mutant as exogenous standards. First strand cDNA was synthesized from approximately 500 ng of total RNA using the cDNA Cycle Kit (Invitrogen, Carlsbad, Calif.). PCR was performed on a GeneAmp PCR System 9600 (Perkin Elmer, Norwalk, Conn.) using end-labeled primer and TAq DNA Polymerase (Gibco-BRL, Gaithersburg, Md.). Products were separated on a 5% acrylamide gel containing 7 M urea, and detected using a Storm860 Phosphoimager (Molecular Dynamics, Sunnyvale, Calif.). Data were analyzed using ImageQuant Software (Molecular Dynamics, Sunnyvale Calif.). To control for any diurnal mRNA level fluctuations that may occur, the PNA injection time was controlled such that the tissue harvest time was identical in each animal group.

NTR1 mRNA = experiment: Quantitative RT-PCR of NTR1 mRNA relative to GAPDH; format: in vivo; details: treated intracranially, 5 μg; at 8 hours
Method: as §3

[3] = test system: plasma membrane serotonin transporter; experiment: Hyperactivity (activity chamber) after tranylcypromine challenge; format: in vivo, rat; details: 5 mg/kg i.p., then 15 mg/kg TCP 48 hours later
Method: To test the ability of SERT-PNA oligomers to engender a biological response, e.g., a reduction of plasma membrane serotonin transporter expression, SERT-PNA oligomers were administered to rats with and without tranylcypromine (TCP), a MAO inhibitor.
A solution containing 5 mg/kg of SERT-PNA oligomers in saline was injected directly into the peritoneal cavity of male Sprague-Dawley rats (200-250 g). Each rat received a single injection on day zero and the volume injected was about 200 μl. Controls included rats receiving injections of saline only and injections of TCP only.
To monitor hyperactivity, an Opto-Varimex-Minor activity chamber (Columbus Instruments, Columbus, Ohio) was used. Briefly, this activity chamber records the number of times an animal disrupts an infrared beam while in a 42 cm by 42 cm chamber. Other signs of hyperactivity were noted by gross observation.

mu-1 receptor (MU1R) = experiment: Tail flick test of MOR-mediated anti-nociception in PNA-treated rats; format: in vivo, rat
Method: The injection of MOR into rats produces a potent anti-nociceptive response. This response is mediated by specific MOR receptors and is inhibited by naloxone. A very sensitive and reliable tail flick test was devised and used to measure the anti-nociceptive effects of MOR (D'Amour F. E. and Smith D. L, J. Pharm. Exp. Therap. 72:74-79 (1941)).
MU1R-PNA, NTR1-PNA, and ACSF treated as well as untreated rats were analyzed using the MOR-specific tail flick test. One day after the last treatment, each rat was analyzed as follows. Thirty minutes prior to testing, a pre-drug latency measurement was made by placing the tail of the restrained rat in oil maintained at a temperature of 60° C. and recording the time elapsed before the rat flicked its tail. After making this measurement, an appropriate dose of MOR (5 mg/kg of body weight) at a volume of about 200 μl was injected i.p. Thirty minutes after administering MOR, the restrained rat's tail was again placed in the oil maintained at 60° C. and the latency between the time the tail was placed in the oil and the time the rat flicked its tail was measured. […] Tail flick tests were scored as the percent of MPE and calculated using the following equation: % MPE=[(post-drug latency−pre-drug latency)/(cut-off−pre-drug latency)]×100; where the cut-off is 12 seconds. […] This average for untreated control rats was used to set the baseline A MPE value to 100. All test situations were compared to this baseline response value derived from MOR responsive untreated controls. To test the significance, data were analyzed using the Student's t-test with p<0.05 being considered significant.
as §2

[4] = 10 mg/kg intraperitoneally, NT 18 nmol into PAG 24 hours later
[5] = PNA injected into PAG on days -4, -2, 0, NT 18 nmol into PAG

Substance: mismatch-AS-NTR1-PNA: PNA oligomer like AS-NTR1-PNA with a mismatch at every third base pair, 5′-TATGGCACAGAC-3′ (SEQ ID NO:12) (all peptide nucleic acid (PNA); further chemistry not fully specified)
- body temperature change in response to NT ([1]; 10 mg/kg intraperitoneally): −1.3 °C
- anti-nociception score (hot plate) after NT [2, 4]: 60 % MPE

Substance: sense-NTR1-PNA: sense PNA oligomer for NTR1, complementary to AS-NTR1-PNA, 5′-GTTTGAGCAATG-3′ (SEQ ID NO:13) (all peptide nucleic acid (PNA); sense control PNA, further chemistry not fully specified)
- body temperature change in response to NT ([1]; 10 mg/kg intraperitoneally): −0.45±0.15 °C
- body temperature change in response to NT ([1]; PNA into PAG, 5 μg): −0.5 °C
- change in MU1R/GAPDH ratio of mRNA (MU1R mRNA): no change
- anti-nociception score (hot plate) after NT [2, 4]: 5.4±5.4 % MPE
- anti-nociception score (hot plate) after NT ([2]; PNA microinjected into PAG (printed 5% g), NT 18 nmol 24 hours later): 14 % MPE
- reduction in the NTR1/GAPDH ratio of mRNA (NTR1 mRNA): 50%

Substance: SERT-PNA: 12-mer antisense PNA oligomer to rat plasma membrane serotonin transporter, 5′-GCCAGATGTTGC-3′ (SEQ ID NO: 3) (all peptide nucleic acid (PNA); further chemistry not fully specified)
- hyperactivity after TCP [3]: extreme hyperactivity
- time to extreme hyperactivity after TCP treatment [3]: ≤ 10 min

Substance: MU1R-PNA: 14-mer antisense PNA oligomer to mu-1 receptor 5′ non-coding region, 5′-CAGCCTCTTCCTCT-3′ (SEQ ID NO: 2) (all peptide nucleic acid (PNA); further chemistry not fully specified)
- BT (hypothermia) response to NT challenge as percent of baseline response [1, 5]: indistinguishable from the baseline responses
- anti-nociception score (hot plate) after NT [2, 4]: 82 % MPE
- MPE (hot plate) response to NT challenge as percent of baseline response [2, 5]: indistinguishable from the baseline responses
- time until which MOR-mediated anti-nociception remained significantly reduced (mu-1 receptor (MU1R); PNA injected into PAG on days -4, -2, 0): day twelve
- responsiveness to MOR challenge (tail flick) (mu-1 receptor (MU1R); one day after single i.p. injection of 3 mg/kg): unable to respond to MOR challenge
